Experimental data reported in PubChem BioAssay (NCI).
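Following 48 hours of exposure in 96-well plates, responses at five concentrations were used to interpolate endpoints linearly. GI50 = concentration required for 50% inhibition of growth. TGI marks complete inhibition of growth.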

Key:
Test in all cases: NCI-60 cell line screen, 48 h
KM12 colon = test system: KM12 colon
LOX IMVI melanoma = test system: LOX IMVI melanoma
NCI-H23 lung = test system: NCI-H23 lung
NCI-H460 lung = test system: NCI-H460 lung
OVCAR-5 ovarian = test system: OVCAR-5 ovarian
SK-MEL-28 melanoma = test system: SK-MEL-28 melanoma
SN12C renal = test system: SN12C renal
OVCAR-3 ovarian = test system: OVCAR-3 ovarian
OVCAR-4 ovarian = test system: OVCAR-4 ovarian
MDA-MB-435 = test system: MDA-MB-435

| SMILES | TGI (KM12 colon) [µM] | TGI (LOX IMVI melanoma) [µM] | TGI (NCI-H23 lung) [µM] | TGI (NCI-H460 lung) [µM] | TGI (OVCAR-5 ovarian) [µM] | TGI (SK-MEL-28 melanoma) [µM] | TGI (SN12C renal) [µM] | GI50 (KM12 colon) [µM] | GI50 (LOX IMVI melanoma) [µM] | GI50 (NCI-H460 lung) [µM] | GI50 (OVCAR-3 ovarian) [µM] | TGI (OVCAR-3 ovarian) [µM] | GI50 (OVCAR-4 ovarian) [µM] | TGI (OVCAR-4 ovarian) [µM] | GI50 (OVCAR-5 ovarian) [µM] | GI50 (SK-MEL-28 melanoma) [µM] | GI50 (SN12C renal) [µM] | TGI (MDA-MB-435) [µM] |
| --- | --- | --- | --- | --- | --- | --- | --- | --- | --- | --- | --- | --- | --- | --- | --- | --- | --- | --- |
| CC(=O)N1c2ccccc2C2=CC3C4C(=O)N(c5ccccc5)C(=O)C4C21C1C(=O)N(c2ccccc2)C(=O)C31 (stereo unspecified) | > 100 | > 100 | > 100 | > 100 | > 100 | > 100 | > 100 | – | – | – | – | – | – | – | – | – | – | – |
| CC[O-].CC[O-].O=C([CH-]C(=O)c1cccnc1)c1ccccc1.O=C([CH-]C(=O)c1cccnc1)c1ccccc1.[Ti+4] | > 100 | > 100 | – | > 100 | > 100 | > 100 | > 100 | 32.7 | > 100 | 31.2 | > 100 | > 100 | > 100 | > 100 | > 100 | > 100 | > 100 | – |
| COC(c1cccc(C(O)(C(F)(F)F)C(F)(F)F)c1)(C(F)(F)F)C(F)(F)F | 33.9 | 34.1 | 35.3 | 41.5 | 32.4 | – | 32.2 | – | – | – | – | 38 | – | 30.4 | – | – | – | – |
| O=C(O)C1=CCCc2ccc3ccccc3c21 | > 100 | > 100 | > 100 | > 100 | > 100 | > 100 | > 100 | – | – | – | – | > 100 | – | > 100 | – | – | – | – |
| O=C(CCC(=O)Nc1cccc(Cl)c1)CC(=O)c1ccc(F)cc1 | > 100 | > 100 | > 100 | > 100 | > 100 | > 100 | > 100 | – | – | – | – | > 100 | – | > 100 | – | – | – | – |
| Nc1nc(N)c(Cn2ccnc2)c(=O)[nH]1 | > 100 | > 100 | > 100 | > 100 | > 100 | – | > 100 | – | – | – | – | > 100 | – | > 100 | – | – | – | > 100 |
| Cn1c2c(c3ccccc31)CCN(CCN1CCN(c3ccccc3)CC1)C2=O | – | > 100 | > 100 | > 100 | – | > 100 | > 100 | – | – | – | – | – | – | – | – | – | – | – |
| CCN(CC)CCCn1cnc2ncccc2c1=O | > 100 | > 100 | > 100 | > 100 | > 100 | > 100 | > 100 | – | – | – | – | > 100 | – | > 100 | – | – | – | – |
| C/C(=N\NC(N)=S)c1cc(C)c(C)cc1C | 71.2 | > 100 | > 100 | > 100 | 46.5 | > 100 | > 100 | – | – | – | – | 60.3 | – | > 100 | – | – | – | – |
